Experimental data taken from patent publication US20220000878A1, “METHODS OF TREATMENT OF MALIGNANCIES” (Servier Pharmaceuticals, LLC, priority 2015, published 2022).
≈ marks a conversion by molar mass, not a printed value. Entries after “also recorded” stand apart in the source; their conditions may differ.

How the values were obtained:
2-HG = assay: Phase 1/2 study AG221-C-001: pharmacodynamic response (2-HG plasma levels); assay type: in vivo, human
Source text: (§1) This is a Phase 1/2, multicenter, open-label, 3-part (Phase 1 dose escalation, Phase 1 Part 1 Expansion, and Phase 2), safety, PK/PD, and clinical activity evaluation of orally administered COMPOUND 1 in subjects with advanced hematologic malignancies that harbor an IDH2 mutation. The study includes a dose escalation phase to determine MTD/MAD and/or RP2D, an expansion phase (Part 1) to further evaluate the safety, tolerability, and clinical activity of COMPOUND 1, and a Phase 2 to assess the clinical efficacy of COMPOUND 1 at the RP2D and to further evaluate safety in subjects with refractory and relapsed AML carrying an IDH2 mutation.
Subjects in the dose escalation phase and Part 1 Expansion also will undergo PK/PD assessments over a 10-hour period on C1D15, C2D1, and C4D1. […] These subjects will have urine collected for PK/PD evaluation at screening; prior to dosing on C1D15, C2D1 and Day 1 of all cycles thereafter; and at the End of Treatment visit. Available bone marrow biopsy samples also will be assessed for 2-HG and α-KG levels.
The starting dose of COMPOUND 1 recommended for evaluation is 100 mg QD. This is based on the safety, PK, pharmacodynamics and clinical activity of COMPOUND 1 observed to date in AG221-C-001. […] Thus a dose of 100 mg should adequately achieve inhibition of 2-HG in subjects with either R140Q or R172K mutation.
Serial blood sampling for determination of concentration-time profiles of COMPOUND 1 and its metabolite (6-(6-(trifluoromethyl)pyridin-2-yl)-N2-(2-(trifluoromethyl)pyridin-4-yl)-1,3,5-triazine-2,4-diamine). Urine sampling for determination of concentrations of COMPOUND 1 and its metabolite (6-(6-(trifluoromethyl)pyridin-2-yl)-N2-(2-(trifluoromethyl)pyridin-4-yl)-1,3,5-triazine-2,4-diamine) (dose escalation and Part 1 expansion subjects only). Blood and bone marrow sampling for determination of 2-HG and α-KG levels.

[1] = system: advanced hematologic malignancies with an IDH2 mutation; assay: Phase 1/2 study AG221-C-001: clinical activity and safety; assay type: in vivo, human
Source text: as §1
Subjects in the dose escalation phase and Part 1 Expansion will have the extent of their disease assessed, including bone marrow biopsies and/or aspirates and peripheral blood, at screening, on C1D15, C2D1, and C3D1, every 28 days (peripheral blood only) or every 56 days (bone marrow biopsies and/or aspirates and peripheral blood) thereafter while on study drug treatment, independent of dose delays and/or dose interruptions, and/or at any time when progression of disease is suspected. Response to treatment and treatment decisions in all subjects will be determined by the Investigators based on modified International Working Group (IWG) response criteria or other appropriate response criteria for the malignancy under study. […]

[2] = system: advanced hematologic malignancies with an IDH2 mutation; assay: NRAS mutation status and COMPOUND 1 response (next generation sequencing of screening samples, Fisher's exact test); assay type: in vivo, human
Method: A subset of the clinical samples from the trial described in Example 1 were analyzed at screening. Sample types included bone marrow, peripheral blood and mononuclear cells isolated from bone marrow or peripheral blood. DNAs were extracted from these samples and sequenced at Foundation Medicine (see http://foundationone.com/learn.php) using next generation sequencing technique.
A total of 60 genes were identified to carry at least one mutation in the analyzed set (including IDH2 gene). Fisher's exact test was conducted to evaluate the association of somatic mutations with clinical response (responders include CR, CRp, CRi and PR, indicated as +, while none-responders include SD and PD, indicated as—in Table 11). The P-values were adjusted by multiple-test correction.
Mutation status positive (+) means any known mutation(s) in NRAS, and negative (−) means no mutation in NRAS was present.
Positive response status (+) includes CR, mCR and PR and negative response status (−) includes stable disease (SD) and progressive disease (PD).

[3] = system: advanced hematologic malignancies with an IDH1 mutation; assay: NRAS mutation status and COMPOUND 2 response (subset of clinical samples of the Phase 1 trial); assay type: in vivo, human; details: cancer with mutant allele of IDH1
Source text: This study is a Phase 1, multicenter, open-label, dose-escalation, safety, PK/PD, and clinical activity evaluation of orally administered COMPOUND 2 in subjects with advanced hematologic malignancies that harbor an IDH1 mutation. The study includes a dose escalation phase to determine MTD and/or RP2D followed by expansion arms to further evaluate the safety, tolerability, and clinical activity of COMPOUND 2 in select populations.
A analysis of a subset of the clinical samples from the trial for COMPOUND 2 was conducted. FIG. 14 provides a visual of NRAS mutations according to response categories for COMPOUND 2. FIG. 14 profiles bone marrow at screening visit for patients only where genes were mutated in ≥2. In FIG. 14, genes (y-axis) are shown in decreasing order of frequency, with the exception of IDH2, while patients (x-axis) are grouped by response then by similarity in alterations; only patients from dose escalation phase with an evaluable response included.
A subset of the clinical samples from the trial for COMPOUND 2 described in Example 3 was analyzed for mutations in the samples. FIG. 14 provides a visual of commutations, including NRAS mutations according to response categories for COMPOUND 2. FIG. 14 profiles bone marrow at screening visit for patients only where genes were mutated in ≥2. […]

[4] = solubility in fasted state simulated intestinal fluid (FASSIF); assay type: physicochemical; details: pH 6.1, fassif, thermodynamic from solid, pH of 6.1 at 4 hours
Method: In comparison, amorphous spray-dried dispersions have a solubility of about 0.05 mg/mL to about 0.50 mg/mL in FASSIF at 3 hours.

Structure (SMILES): CC(C)(O)CNc1nc(Nc2ccnc(C(F)(F)F)c2)nc(-c2cccc(C(F)(F)F)n2)n1 [COMPOUND 1, 2-methyl-1-[(4-[6-(trifluoromethyl)pyridin-2-yl]-6-{[2-(trifluoromethyl)pyridin-4-yl]amino}-1,3,5-triazin-2-yl)amino]propan-2-ol]
- reduction in 2-HG plasma levels (2-HG; by Day 1 of Cycle 2): sustained reduction
- inhibition of 2-HG (2-HG; most subjects with R140Q mutation, all doses, plasma): up to 98%
- dose dependence of exposure and inhibition of 2-HG (2-HG; subjects with R172K mutation): Increasing dose is associated with higher exposure and inhibition of 2-HG
- safety profile, including ≥Grade 3 ([1]; 100 mg): consistent with that of lower doses
- overall response rate ([1]; 44 subjects treated at 100 mg QD, preliminary efficacy data): 36.4%
- association of NRAS mutation status with response ([2]; cancer with mutant allele of IDH2): associated with responses; also recorded: significantly associated
- number of patients, response status − , NRAS mutation + ([2]; non-responders (SD, PD), any known NRAS mutation): 21
- number of patients, response status − , NRAS mutation − ([2]; non-responders (SD, PD), no NRAS mutation): 40
- number of patients, response status + , NRAS mutation + ([2]; responders, any known NRAS mutation, N = 118 analyzed): 2
- number of patients, response status + , NRAS mutation − ([2]; responders, no NRAS mutation, N = 118 analyzed): 55

Structure (SMILES): N#Cc1ccnc(N2C(=O)CC[C@H]2C(=O)N(c2cncc(F)c2)[C@H](C(=O)NC2CC(F)(F)C2)c2ccccc2Cl)c1 [COMPOUND 2, (S)—N—((S)-1-(2-chlorophenyl)-2-((3,3-difluorocyclobutyl)amino)-2-oxoethyl)-1-(4-cyanopyridin-2-yl)-N-(5-fluoropyridin-3-yl)-5-oxopyrrolidine-2-carboxamide]
- association of NRAS mutation status with response [3]: associated with responses

Structure (SMILES): N#Cc1ccnc(N2C(=O)CC[C@H]2C(=O)N(c2cncc(F)c2)[C@H](C(=O)NC2CC(F)(F)C2)c2ccccc2Cl)c1 [Form 2]
- solubility at 4 h [4]: ~18 µg/mL (≈ 30.9 µM)
